Data as given in patent US6858633B1, “Substituted 2-arylbenzazole compounds and their use as antitumour agents” (Cancer Research Technology Limited, priority 1999, dated 2005).

Key:
[1] = test system: certain human breast cancer cell lines; settings: WO 95/06469; cited from earlier work
[2] = test system: ER positive MCF-7 human breast tumor xenografts
[3] = test system: cell lines that relate to a range of various mammalian cancers other than human breast cancer; settings: WO 96/26932; cited from earlier work
[4] = test system: MCF-7; test: In vitro cytotoxicity, 3-day MTT assay, MCF-7; format: cell-based, human; settings: 3-day MTT assay, n=8
Protocol: (§1) In carrying out the following cytoloxicity assays, the method used corresponds substantially to the following example: • Cells were maintained in a continuous logarithmic culture in RMPI 1640 with L-glutamine medium, supplemented with 10% fetal calf serum, penicillin (100 IU/ml) and streptomycin (100 μg/ml). The cells were mildly trypsinized for passage and for use in assays. • On day one, 180 μl of trypsinized tumour cells (5×10^3 ml^−1) were placed in the wells of 96-well, flat-bottom microtiter plates. Columns 1 and 12 were filled with 300 μl medium to protect from evaporation. The plates were incubated for 24 hours at 37° C. and 5% CO2 in air to allow the cells to adhere and resume exponential growth prior to the addition of drugs. The compounds being tested were dissolved in DMSO and stored as 10 mM stock solutions at 4° C., protected from light. […] 20 μl of drug dilution was added to the other wells with the lowest concentration in column 3 and the highest concentration in column 11. The plates were incubated for 72 hours at 37° C. and 5% CO2 in air. Each compound was tested in triplicate. At the time of drug addition, a plate of untreated cells was read to provide an initial optical density value for use in the calculation of the IC50. • On day five the plates were read. 50 μl MTT (1 mg/ml^−1) was added per well and the plates incubated for a further 4 hours. The MTT is metaboliscd to form a blue formazan product. The MTT solution was aspirattd and 125 μl DMSO:glycine buffer (4:1) was added. The plates were placed on a plate shaker until the fornazan crystals had dissolved and absorbance was ready at 550 nm on a plate reader. • For each compound tested, a dose response curve was obtained and the IC50 statue (drug concentration at 50% inhibition of cell growth) was calculated.
(§2) (n=8) for a range of compounds in relation to MCF-7 and MDA 468 cell lines.

[5] = test system: MDA468; test: In vitro cytotoxicity, 3-day MTT assay, MDA468; format: cell-based; settings: n=8
Protocol: as §1, §2

[6] = test system: sensitive cell lines; test: Biphasic dose-response relationship (second growth phase) in sensitive cell lines; format: cell-based
Source text: One feature of the prior art compounds is that they show a biphasic dose-response relationship specifically in sensitive cell lines: cell kill occurs at low nanomolar concentrations of the compounds, followed by a potentially undesirable proliferative response at low micromolar concentrations (termed the “second growth phase”).

[7] = test system: COLO205 xenografts; test: In vivo COLO205 xenograft study (FIG. 2)
[8] = Blood parameters and liver transaminases in xenograft studies; design: species or system nude mice; settings: mouse, in vivo
[9] = Plasma concentrations after administration to mice; format: in vivo; settings: mouse, 70 μmol/kg, read-out: Geometric Mean Plasma Concentration
[10] = test system: ER negative MT-1 human breast tumor xenografts
[11] = Stability in plasma in vitro; format: in vitro ADME, rat; settings: rat, plasma
[12] = test system: MCF-7 cells; test: Conversion of prodrug to parent in culture of MCF-7 cells; format: cell-based
[13] = rat, in vivo, iv, 25 mg/kg

In the case of `Nc1ccc(-c2nc3ccccc3s2)cc1` [CJM 126, 2-(4′-aminophenyl)benzothiazole], the “specific inhibitory activity in human breast cancer cell lines” value [1] is listed as “remarkably high specific inhibitory activity”.

In the case of `Cc1cc(-c2nc3ccccc3s2)ccc1N` [DF203, 2-(4′-amino-3′-methylphenyl)benzothiazole, reference compound], the “tumour growth inhibition, MCF7 xenografts (FIG. 1)” value [2] is listed as “Tumour growth inhibition observed” and the “anti-proliferative activity in cell lines of cancers other than human breast cancer” value [3] is listed as “exhibit anti-proliferative activity selectively”.

With `Cc1cc(-c2nc3cc(F)ccc3s2)ccc1N` [Compound Ik, 5-Fluoro-2-(4′-amino-3′-methylphenyl)benzothiazole] the IC50 ([4]; Homo sapiens, MCF7, 72 h) was under 0.1 nM, the IC50 ([5]; 72 h) was under 0.1 nM and the “biphasic dose-response (second growth phase)” value [6] was “the biphasic response is eliminated”. For the same molecule, the “tumour growth inhibition, COLO205 xenografts (FIG. 2)” value [7] was “tumour growth inhibition observed”, the “blood parameters (white blood cell and platelet counts) and level of liver transaminases” value [8] was “not adversely affected” and the concentration at 3.5 min ([9]; mean sample time 3.5 min) was 1180 nM. It also gave a concentration at 6.5 min ([9]; mean sample time 6.5 min) of 1530 nM, a concentration at 9.5 min ([9]; mean sample time 9.5 min) of 1840 nM and a concentration at 12.5 min ([9]; mean sample time 12.5 min) of 2270 nM. The concentration at 15.5 min ([9]; mean sample time 15.5 min) was 3270 nM, the concentration at 20.8 min ([9]; mean sample time 20.8 min) was 2680 nM and the concentration at 30.5 min ([9]; mean sample time 30.5 min) was 3770 nM. The concentration at 45.4 min ([9]; mean sample time 45.4 min) was 3410 nM, the concentration at 60.5 min ([9]; mean sample time 60.5 min) was 4110 nM and the concentration at 90.6 min ([9]; mean sample time 90.6 min) was 3520 nM. The concentration at 120.5 min ([9]; mean sample time 120.5 min) was 2630 nM, the concentration at 240 min ([9]; mean sample time 240.0 min) was 1000 nM and the concentration at 360 min ([9]; mean sample time 360.0 min) was 590 nM. The “toxicity in MCF-7 xenograft study” value ([2]; 12.5 mg/kg, i.p.) was “toxic”, the “tumour growth inhibition, MCF7 xenografts (FIG. 1)” value [2] was “Tumour growth inhibition observed” and the “growth inhibition of MCF-7 xenografts” value ([2]; given i.p.) was “Significant growth inhibition”. The “toxicity in MT-1 xenograft study” value ([10]; 25 mg/kg, parent compounds) was “toxic”, the “tumor growth inhibition in MT-1 xenografts” value ([10]; dose dependence) was “dose-dependent tumor growth inhibition” and the “weight loss in MT-1 xenograft study” value ([10]; dose dependence) was “weight loss”.

With `Cc1cc(-c2nc3cc(F)ccc3s2)ccc1NC(=O)C(N)CCCCN.Cl.Cl` (centres unmarked) [Compound Iad, 5-Fluoro-2-(4′-amino-3′-methylphenyl)benzothiazole Lysyl Amide Dihydrochloride Salt] the IC50 [4] was 40 nM, the IC50 [5] was 158 nM and the “stability in plasma in vitro” value [11] was “stable”. For the same molecule, the “concentration of parent compound 5F203 after addition of prodrug to MCF-7 culture” value [12] was “progressive increase in concentration of the parent compound 5F203” and the “removal from plasma and reconversion to parent compound in vivo” value [13] was “readily removed from such plasma and reconverted to their parent compound in vivo”.
